Measured values as given in patent publication US10450344B2, “Antibody-binding polypeptide, antibody-binding fusion polypeptide, and adsorption material” (FUJIFILM Corporation, priority 2014, dated 2019).
Square brackets hold non-standard residues; d marks the D form. Peptide text beside a SMILES is read from it. PEG8 = NCCOCCOCCOCCOCCOCCOCCOCCOCCC(=O)O

Columns and labels:
human IgG antibody = assay: SPR evaluation of antibody binding properties of ligand immobilized on CM5 sensor chip; conditions: for dissociation rate Koff: SPR, human IgG antibody, 25° C., HEPES buffer, fitting with BIAevaluation4.1
Description: The association rate Kon [nM/s] and the dissociation rate Koff [l/s ] of an antibody were calculated from the binding reaction curve, and also the dissociation constant Kd [nM] in the binding reaction of polypeptide 1 with a human IgG antibody was calculated.

[1] = molecular target: Bovine Serum Albumin (BSA) (Bos taurus, UniProt P02769); assay: SPR evaluation of selectivity (binding of BSA to immobilized carrier)
Chain of Bovine Serum Albumin (BSA) (P02769 25-607): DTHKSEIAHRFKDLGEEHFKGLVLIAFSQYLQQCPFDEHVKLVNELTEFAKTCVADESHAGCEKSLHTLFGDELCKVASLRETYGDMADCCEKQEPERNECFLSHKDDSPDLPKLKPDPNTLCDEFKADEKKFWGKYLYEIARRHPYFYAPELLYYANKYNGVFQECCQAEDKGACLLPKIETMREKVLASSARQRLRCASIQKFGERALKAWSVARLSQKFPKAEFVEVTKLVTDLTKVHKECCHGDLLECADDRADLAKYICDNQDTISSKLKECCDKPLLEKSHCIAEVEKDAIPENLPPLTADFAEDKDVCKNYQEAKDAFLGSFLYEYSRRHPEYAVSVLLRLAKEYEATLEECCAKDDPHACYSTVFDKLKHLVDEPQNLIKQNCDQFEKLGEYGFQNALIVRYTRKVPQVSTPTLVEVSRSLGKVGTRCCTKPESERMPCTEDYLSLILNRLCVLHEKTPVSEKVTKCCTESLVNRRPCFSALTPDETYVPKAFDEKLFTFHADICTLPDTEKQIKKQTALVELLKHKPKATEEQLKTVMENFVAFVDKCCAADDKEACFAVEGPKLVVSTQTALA
Description: A commercially available CM5 (carboxymethyl dextran introduction type, manufactured by GE Healthcare) sensor chip was set on a surface plasmon resonance (SPR) apparatus Biacore (manufactured by GE Healthcare), HEPES buffer (20 mM HEPES-HCl, 150 mM NaCl, pH 7.4) for SPR was stabilized at a flow rate of 10 μL/min, and 70 μL of a mixed aqueous solution of 0.2 M 1-ethyl-3-(3-dimethylaminopropyl)carbodiimide (EDC, manufactured by Wako Pure Chemical Industries, Ltd.) and 0.04 M N-hydroxysuccinimide (NHS, manufactured by Wako Pure Chemical Industries, Ltd.) was added. Then, 500 μL of a sample solution of polypeptide 1 diluted to 100 μM with the above-mentioned HEPES buffer and treated with a 0.20 μm PTFE filter (manufactured by [sequence]) was supplied to a carrier sample, blocked by an ethanolamine solution, and washed with an aqueous sodium hydroxide solution, followed by immobilization to prepare an immobilized carrier.
1000 nM of Bovine Serum Albumin (BSA, manufactured by Sigma-Aldrich) was added to the immobilized carrier A prepared in the above (1) at 25° C. over 10 min, and the binding amount after 10 minutes in HEPES buffer was measured by SPR.

[2] = Evaluation of temporal stability (solution stored at 40° C. for one month, then antibody-binding amount by SPR)
Description: A solution of the synthesized polypeptide 1 was stored in a constant-temperature zone (40° C.) for one month, and then the ligand was immobilized as in the above (1).

[3] = Evaluation of alkali resistance (1N NaOH, then antibody-binding amount by SPR); format: physicochemical
Description: The synthesized polypeptide 1 was immersed in 1N NaOH at room temperature for 1 hour, and then the ligand was immobilized as in the above (1).

Molecule: H-EQQNAFY-OH [Example 1, EQQNAFY]
- dissociation rate Koff (human IgG antibody): 0.00017 s⁻¹

Molecule: Ac-KKKEQQNAFYKKK-OH [Example 22]
- dissociation rate Koff (human IgG antibody): 0.00015 s⁻¹

Molecule: Comparative Example 1: wild-type protein A (manufactured by Repligen Corporation) [reference compound]
- dissociation rate Koff (human IgG antibody): 0.00025 s⁻¹

Molecule: H-EQQNAFYGGGKGGGEQQNAFY-OH [Example 8]
- dissociation rate Koff (human IgG antibody): 0.00015 s⁻¹

Molecule: H-EGQNAFY-OH [Example 5, EGQNAFY]
- dissociation rate Koff (human IgG antibody): 0.0002 s⁻¹

Molecule: H-EQSAFY-OH [Example 15, EQSAFY]
- dissociation rate Koff (human IgG antibody): 0.00014 s⁻¹

Molecule: H-EQQNAFYEILHL-OH [Example 4]
- dissociation rate Koff (human IgG antibody): 0.00013 s⁻¹

Molecule: H-DAQQSAFY-OH [Example 17]
- dissociation rate Koff (human IgG antibody): 0.00013 s⁻¹

Molecule: C[C@H](NC(=O)[C@H](CC(N)=O)NC(=O)[C@H](CCC(N)=O)NC(=O)[C@H](CCC(N)=O)NC(=O)[C@H](CCC(=O)O)NC(=O)CCOCCOCCOCCOCCOCCOCCOCCOCCN)C(=O)N[C@@H](Cc1ccccc1)C(=O)N[C@@H](Cc1ccc(O)cc1)C(=O)N[C@@H](CCC(=O)O)C(=O)O [Example 24] (H-[PEG8]EQQNAFYE-OH)
- dissociation rate Koff (human IgG antibody): 0.00013 s⁻¹

Molecule: H-DQSAFY-OH [Example 18, DQSAFY]
- dissociation rate Koff (human IgG antibody): 0.00019 s⁻¹

Molecule: H-EQQSAFY-OH [Example 10, EQQSAFY]
- dissociation rate Koff (human IgG antibody): 0.00015 s⁻¹

Molecule: H-EAQQNAFY-OH [Example 16]
- dissociation rate Koff (human IgG antibody): 0.00019 s⁻¹

Molecule: NCCNc1nc(NCCc2ccc(O)cc2)nc(Nc2ccccc2)n1 [Comparative Example 3]
- selectivity (in words) [1]: insufficient
- temporal stability (in words) [2]: sufficient
- antibody binding properties (in words) (human IgG antibody): insufficient
- dissociation rate Koff (human IgG antibody): 0.00065 s⁻¹
- alkali resistance (in words) [3]: sufficient

Molecule: H-KKKEQQNAFYKKK-OH [Example 6]
- dissociation rate Koff (human IgG antibody): 0.00015 s⁻¹

Molecule: H-KEQQNAFY-OH [Example 2]
- dissociation rate Koff (human IgG antibody): 0.00013 s⁻¹

Molecule: H-DQQSAFY-OH [Example 12, DQQSAFY]
- dissociation rate Koff (human IgG antibody): 0.00015 s⁻¹

Molecule: H-EQQNAFYEILH-OH [Example 3]
- dissociation rate Koff (human IgG antibody): 0.00017 s⁻¹

Molecule: H-QQNAFYEI-OH [Comparative Example 4, reference compound]
- selectivity (in words) [1]: poor
- antibody binding properties (in words) (human IgG antibody): poor
- dissociation rate Koff (human IgG antibody): 0.00024 s⁻¹

Molecule: H-DQQSAFYEILH-OH [Example 13]
- dissociation rate Koff (human IgG antibody): 0.00015 s⁻¹

Molecule: Ac-KKKEQQNAFYEILHKKK-OH [Example 23]
- dissociation rate Koff (human IgG antibody): 0.00016 s⁻¹

Molecule: H-EAQQSAFY-OH [Example 14]
- dissociation rate Koff (human IgG antibody): 0.00014 s⁻¹

Molecule: Ac-EQQNAFYEILHK-OH [Example 21]
- dissociation rate Koff (human IgG antibody): 0.00016 s⁻¹

Molecule: H-KKKEQQNAFYEILHKKK-OH [Example 7]
- dissociation rate Koff (human IgG antibody): 0.00016 s⁻¹

Molecule: H-EQQNAFY-NH2 [Example 19, EQQNAFY-NH2]
- dissociation rate Koff (human IgG antibody): 0.00015 s⁻¹

Molecule: H-EQNAFY-OH [Example 9, EQNAFY]
- dissociation rate Koff (human IgG antibody): 0.00017 s⁻¹

Molecule: CC(=O)N[C@@H](CCC(=O)O)C(=O)N[C@@H](CCC(N)=O)C(=O)N[C@@H](CCC(N)=O)C(=O)N[C@@H](CC(N)=O)C(=O)N[C@@H](C)C(=O)N[C@@H](Cc1ccccc1)C(=O)N[C@@H](Cc1ccc(O)cc1)C(=O)NCCOCCOCCOCCOCCOCCOCCOCCOCCC(=O)N[C@@H](CCCCN)C(=O)NCCOCCOCCOCCOCCOCCOCCOCCOCCC(=O)N[C@@H](CCC(=O)O)C(=O)N[C@@H](CCC(N)=O)C(=O)N[C@@H](CCC(N)=O)C(=O)N[C@@H](CC(N)=O)C(=O)N[C@@H](C)C(=O)N[C@@H](Cc1ccccc1)C(=O)N[C@@H](Cc1ccc(O)cc1)C(=O)O [Example 25, Ac-EQQNAFY-(peg)8-K-(peg)8-EQQNAFY] (Ac-EQQNAFY[PEG8]K[PEG8]EQQNAFY-OH)
- dissociation rate Koff (human IgG antibody): 0.00019 s⁻¹

Molecule: Ac-EQQNAFYK-OH [Example 20]
- dissociation rate Koff (human IgG antibody): 0.00014 s⁻¹

Molecule: H-EQQSAFYEILH-OH [Example 11]
- dissociation rate Koff (human IgG antibody): 0.00018 s⁻¹
